This passage reports Activity and LD50 results from ChEMBL document CHEMBL1151380, “Recent Studies on Bioactive Compounds From Plants” (J Nat Prod, 1982).

Calls of active or inactive are those of the source. The rule behind the calls is not given here.

In one data set the test system is Spodoptera exempta. Briefly: Antifeedant activity in Spodoptera exempta by choice test. The data set is classed as functional.
The subject of another data set is Spodoptera littoralis. Briefly: Antifeedant activity in Spodoptera littoralis by choice test. The data set is classed as functional.
The next data set has as its system Schistocerca gregaria. Briefly: Antifeedant activity in Schistocerca gregaria at 0.01% dry weight of fiber disc containing 5% sucrose by choice test. It counts as functional.
The next data set concerns Locusta migratoria. Briefly: Antifeedant activity in Locusta migratoria at 0.01% dry weight of fiber disc containing 5% sucrose by choice test. The data set is classed as functional.
In the next data set the test system is Spodoptera eridania. Briefly: Antifeedant activity in Spodoptera eridania by choice test. It counts as functional, organism-based.
The next data set relates to Epilachna varivestis. Kind of data set: Antifeedant activity in Epilachna varivestis by choice test. It counts as functional, organism-based.
A further data set concerns Schistocerca nitens. Kind of data set: Antifeedant activity in Schistocerca vaga by choice test. It counts as functional, organism-based.
The subject of the next data set is Manduca sexta. Briefly: Antifeedant activity in Manduca sexta by choice test. The data set is classed as functional, organism-based.
The test system of another data set is Saccharomyces cerevisiae. Kind of data set: Antimicrobial activity against Saccharomyces cerevisiae. The data set is classed as functional.
For another data set, the system named is Cyberlindnera jadinii. Briefly: Antimicrobial activity against Candida utilis. It counts as functional.
The subject of another data set is Sclerotinia sclerotiorum. Kind of data set: Antimicrobial activity against Sclerotinia libertiana. It counts as functional.
For the next data set, the system named is Mucor mucedo. Briefly: Antimicrobial activity against Mucor mucedo. The data set is classed as functional.
Another data set deals with Biomphalaria glabrata. Kind of data set: Molluscicidal activity against Biomphalaria glabrata after 2 hrs. The data set is classed as functional.
A further data set relates to Biomphalaria pfeifferi. Kind of data set: Molluscicidal activity against Biomphalaria pfeifferi after 2 hrs. It counts as functional.
The subject of a further data set is Radix natalensis. Briefly: Molluscicidal activity against Lymnaea natalensis after 2 hrs. It counts as functional.
The next data set concerns KB. Briefly: Cytotoxicity against human KB cells. The data set is classed as functional.
A short description of data set [1]: Acute toxicity in sc dosed mouse. The data set is classed as organism-based. The note with it: in vivo.

As for `CC1(C)CCC[C@@]2(C)[C@H]1CC=C(C=O)[C@]2(O)C=O` [WARBURGANAL], the Activity with Spodoptera exempta came out at 0.1 ppm; with Spodoptera littoralis, 10 ppm; with Schistocerca gregaria it was 85%; with Locusta migratoria, 85%; in the data set with Saccharomyces cerevisiae, 12.5 µg/mL; in the data set on Cyberlindnera jadinii, 3.1 µg/mL. In addition, the Activity turned out to be 50 µg/mL with Sclerotinia sclerotiorum; 100 µg/mL in the data set with Mucor mucedo; 5 ppm in the data set on Biomphalaria glabrata; 5 ppm in the data set with Biomphalaria pfeifferi; 10 ppm in the data set on Radix natalensis; 0.01 µg/mL in the data set on KB. The result in the data set on Spodoptera eridania, with Epilachna varivestis, in the data set on Schistocerca nitens and in the data set with Manduca sexta was inactive. This compound also came in with an LD50 in [1] of 20.4 mg/kg.
